This passage reports DC50 results from patent US11414416B1, “Compounds and uses thereof” (Foghorn Therapeutics Inc., priority 2019, dated 2022).

A value given as a limit tells only on which side of the number the result lay.

Chain of Nanoluciferase-BRD9 fusion protein (Q9H8M2 whole entry, the tested form may be a part): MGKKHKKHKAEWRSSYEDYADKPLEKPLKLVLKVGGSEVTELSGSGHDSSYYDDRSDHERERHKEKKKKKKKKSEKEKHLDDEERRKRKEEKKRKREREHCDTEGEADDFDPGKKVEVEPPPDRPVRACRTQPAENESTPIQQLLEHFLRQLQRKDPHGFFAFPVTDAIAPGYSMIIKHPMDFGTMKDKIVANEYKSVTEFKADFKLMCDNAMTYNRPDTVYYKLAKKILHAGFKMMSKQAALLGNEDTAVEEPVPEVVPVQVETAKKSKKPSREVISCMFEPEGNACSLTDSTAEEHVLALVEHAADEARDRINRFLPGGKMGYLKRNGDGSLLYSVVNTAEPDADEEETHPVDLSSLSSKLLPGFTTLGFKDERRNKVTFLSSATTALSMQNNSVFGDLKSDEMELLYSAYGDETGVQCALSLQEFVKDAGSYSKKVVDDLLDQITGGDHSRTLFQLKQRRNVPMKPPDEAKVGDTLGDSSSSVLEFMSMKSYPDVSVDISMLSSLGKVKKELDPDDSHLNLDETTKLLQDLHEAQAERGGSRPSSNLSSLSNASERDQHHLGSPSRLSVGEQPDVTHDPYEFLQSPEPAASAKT

The first test addresses Nanoluciferase-BRD9 fusion protein (Homo sapiens (Human), UniProt Q9H8M2). The test is described as follows: SYO1 BRD9 NanoLuc degradation assay. It counts as cell-based. The note with it: Table 5A; SYO-1 cells expressing 3×FLAG-NLuc-BRD9, 6 hours; read-out: SYO1 BRD9-NanoLuc degradation IC50. In outline:
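Degradation was read as loss of nanoluciferase signal (Nano-Glo) after 6 h compound exposure in a stable SYO-1 line carrying 3×FLAG-NLuc-BRD9 (8000 cells/well). Normalised between DMSO (high) and a 1 μM known BRD9 degrader (low).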
As for `COc1cc(-c2cc(C)c(=O)n(C)c2)cc(OC)c1CN1CC(C(=O)NCCCCCCCCNc2cccc3c2C(=O)N(C2CCC(=O)NC2=O)C3=O)C1` (stereo not shown) [Compound D16, 2-(2,6-dihydroxypiperidin-3-yl)-4-[(8-[[hydroxy(1-[[4-(6-hydroxy-1,5-dimethyl-1,6-dihydropyridin-3-yl)-2,6-dimethoxyphenyl]methyl]azetidin-3-yl)methyl]amino]octyl)amino]-2,3-dihydro-1H-isoindole-1,3-diol formic acid], the DC50 is < 10 nM.

On to `COc1cc(-c2cn(C)c(=O)c3cnccc23)cc(OC)c1CN1CC(CCNC(=O)CCOCCOc2cccc3c2C(=O)N(C2CCC(=O)NC2=O)C3=O)C1` (stereo not shown) [Compound D83], for which the DC50 was 100 to 1000 nM.

The test is the same for the next values; noted with them: Table 5B; SYO-1 cells expressing 3×FLAG-NLuc-BRD9, 6 hours; read-out: SYO1 BRD9-NanoLuc degradation IC50.
For the compound `COc1cc(-c2cn(C)c(=O)c3cnccc23)cc(OC)c1CN1CC(CC(=O)N2CC3(CCN(c4ccc5c(c4)C(=O)N(C4CCC(=O)NC4=O)C5=O)C3)C2)C1` (stereo not shown) [Compound D181], the DC50 fell in the range of 100 to 1000 nM. Regarding `COc1cc(-c2cn(C)c(=O)c3cnccc23)cc(OC)c1CN(C)CCCCN1CCC2(CC1)CCN(c1ccc3c(c1)C(=O)N(C1CCC(=O)NC1=O)C3=O)C2` (stereo not shown) [Compound D224], the DC50 is < 10 nM. As for `COc1cc(-c2cc(C)c(=O)n(C)c2C)cc(OC)c1CN1CC(CN2CCC3(CC2)CN(c2ccc4c(c2)C(=O)N(C2CCC(=O)NC2=O)C4=O)C3)C1` (stereo not shown) [Compound D346], the DC50 was < 10 nM.

For the compound `COc1cc(-c2cn(C)c(=O)cc2C)cc(OC)c1CN1CC(CN2CCC3(CC2)CN(c2ccc4c(c2)C(=O)N(C2CCC(=O)NC2=O)C4=O)C3)C1` (stereo not shown) [Compound D349], the DC50 is < 10 nM. The same measure, in the same setting: to `COc1cc(-c2cn(C)c(=O)c3cnccc23)cc(OC)c1CN(C)C(=O)CCCCN1CCC2(CC1)CN(c1ccc3c(c1)C(=O)N(C1CCC(=O)NC1=O)C3=O)C2` (stereo not shown) [Compound D186] belongs < 10 nM. On the same count and under the same terms, to `COc1cc(-c2cn(C)c(=O)c3cnccc23)cc(OC)c1CN1CCC2(C1)CN(CC#Cc1ccc3c(c1)C(=O)N(C1CCC(=O)NC1=O)C3=O)C2` (stereo not shown) [Compound D268] belongs < 10 nM; to `COc1cc(-c2cn(C)c(=O)c3cnccc23)cc(OC)c1CN(C)C(=O)CCCCN1CCC2(CC1)CCN(c1ccc3c(c1)C(=O)N(C1CCC(=O)NC1=O)C3=O)C2` (stereo not shown) [Compound D202], < 10 nM; to `COc1cc(-c2cn(C)c(=O)c3cnccc23)cc(OC)c1CN(C)CCCCCCCCNc1cccc2nc(C)n(C3CCC(=O)NC3=O)c(=O)c12` (stereo not shown) [DD5], 10 to 100 nM.

As for `COc1cc(-c2cn(C)c(=O)c3cnccc23)cc(OC)c1Cn1cc(CN2CC(Oc3ccc4c(c3)C(=O)N(C3CCC(=O)NC3=O)C4=O)C2)nn1` (stereo not shown) [Compound D270], the DC50 was 10 to 100 nM. With `CNC(=O)NCc1cc(-c2cc(OC)c(CN3CC(CN4CCC5(CC4)CN(c4ccc6c(c4)C(=O)N(C4CCC(=O)NC4=O)C6)C5)C3)c(OC)c2)cn(C)c1=O` (stereo not shown) [Compound D364], the DC50 is 100 to 1000 nM. Still for that read-out and setting: to `COc1cc(-c2cn(C)c(=O)c3cnccc23)cc(OC)c1CN1CCC2C(C1)CN2CCCC#Cc1ccc2c(c1)C(=O)N(C1CCC(=O)NC1=O)C2=O` (stereo not shown) [Compound D310] belongs < 10 nM.

Turning to `COc1cc(-c2cn(C)c(=O)c3cn(C)nc23)cc(OC)c1CN1CC(CN2CCC3(CC2)CN(c2ccc4c(c2)CN(C2CCC(=O)NC2=O)C4=O)C3)C1` (stereo not shown) [Compound D370], the DC50 was < 10 nM. As for `COc1cc(-c2cn(C)c(=O)c3cnccc23)cc(OC)c1CN1CC(n2cc(COCCOc3ccc4c(c3)C(=O)N(C3CCC(=O)NC3=O)C4=O)nn2)C1` (stereo not shown) [Compound D299], the DC50 was < 10 nM. Still for that read-out and setting: to `COc1cc(-c2cn(C)c(=O)c3cnccc23)cc(OC)c1CN1CCC2(CC1)CN(CC#Cc1ccc3c(c1)C(=O)N(C1CCC(=O)NC1=O)C3=O)C2` (stereo not shown) [Compound D235] belongs < 10 nM. Same read-out and setting: with `COc1cc(-c2cn(C)c(=O)c3cnccc23)cc(OC)c1CN1CC(CC(=O)N2CCC3(CC2)CCN(c2ccc4c(c2)C(=O)N(C2CCC(=O)NC2=O)C4=O)C3)C1` (stereo not shown) [Compound D191] the figure was < 10 nM; with `COc1cc(-c2cn(C)c(=O)c3cnccc23)cc(OC)c1CN(C)CCCCNC1CC12CCN(c1ccc3c(c1)C(=O)N(C1CCC(=O)NC1=O)C3=O)C2` (stereo not shown) [Compound D252], < 10 nM; with `COc1cc(-c2cn(C)c(=O)c3cnccc23)cc(OC)c1CN1CCN(C(=O)C#Cc2ccc3c(c2)C(=O)N(C2CCC(=O)NC2=O)C3=O)CC1` (stereo not shown) [Compound D216], < 10 nM. Same read-out and setting: to `COc1cc(-c2cn(C)c(=O)c3cnccc23)cc(OC)c1CN(C)CCCCN1CC2(CCN(c3ccc4c(c3)C(=O)N(C3CCC(=O)NC3=O)C4=O)CC2)C1` (stereo not shown) [Compound D223] belongs < 10 nM.

Consider `COc1cc(-c2cn(C)c(=O)c3cnccc23)cc(OC)c1CN1CCC(c2ncc(COc3ccc4c(c3)C(=O)N(C3CCC(=O)NC3=O)C4=O)o2)CC1` (stereo not shown) [Compound D326], for which the DC50 was < 10 nM. On the same count and under the same terms, to `COc1cc(-c2cc(C)c(=O)n(C)c2)cc(OC)c1CN1CCC2(CCN(c3ccc4c(c3)C(=O)N(C3CCC(=O)NC3=O)C4=O)C2)C1` (stereo not shown) [Compound D336] belongs < 10 nM; to `COc1cc(-c2cn(C)c(=O)c3cnccc23)cc(OC)c1CN1CC2(C1)CN(C(=O)CC#Cc1ccc3c(c1)C(=O)N(C1CCC(=O)NC1=O)C3=O)C2` (stereo not shown) [Compound D317], 10 to 100 nM. Same read-out and setting: to `COc1cc(-c2cn(C)c(=O)c3cnccc23)cc(OC)c1CN(C)CCCCN1CC(Oc2ccc3c(c2)C(=O)N(C2CCC(=O)NC2=O)C3=O)C1` (stereo not shown) [Compound D249] belongs 10 to 100 nM; to `COc1cc(-c2cn(C)c(=O)c3cnccc23)cc(OC)c1CN1CCC(c2nc(COc3ccc4c(c3)C(=O)N(C3CCC(=O)NC3=O)C4=O)cs2)CC1` (stereo not shown) [Compound D321], < 10 nM; to `COc1cc(-c2cn(C)c(=O)c3cnccc23)cc(OC)c1CN1CCC(c2nc(COc3ccc4c(c3)C(=O)N(C3CCC(=O)NC3=O)C4=O)co2)CC1` (stereo not shown) [Compound D325], < 10 nM. On the same count and under the same terms, to `COc1cc(-c2cn(C)c(=O)c3cnccc23)cc(OC)c1CN1CC2(C1)CN(C(=O)C#Cc1ccc3c(c1)C(=O)N(C1CCC(=O)NC1=O)C3=O)C2` (stereo not shown) [Compound D185] belongs < 10 nM; to `COc1cc(-c2cn(C)c(=O)c3cnccc23)cc(OC)c1CN(C)C(=O)CCCCN1CCC2C1CN2c1ccc2c(c1)C(=O)N(C1CCC(=O)NC1=O)C2=O` (stereo not shown) [Compound D205], < 10 nM.

Staying with this test, now noted: Table 5C; SYO-1 cells expressing 3×FLAG-NLuc-BRD9, 6 hours; read-out: SYO1 BRD9-NanoLuc degradation IC50.
With `COc1cc(-c2cc(C(F)F)c(=O)n(C)c2C)cc(OC)c1CN1CCC2(C1)CN(c1ccc3c(c1)C(=O)N(C1CCC(=O)NC1=O)C3)C2` (stereo not shown) [Compound D409], the DC50 was < 10 nM. Same read-out and setting: to `COc1cc(-c2cccc3c(=O)n(C)ccc23)cc(OC)c1CN1CCC2(CC1)CN(c1ccc3c(c1)C(=O)N(C1CCC(=O)NC1=O)C3)C2` (stereo not shown) [DD13] belongs 10 to 100 nM; to `COc1cc(-c2cn(C)c(=O)c(C)c2C)cc(OC)c1CN1CCC2(C1)CN(c1ccc3c(c1)C(=O)N(C1CCC(=O)NC1=O)C3=O)C2` (stereo not shown) [Compound D430], < 10 nM; to `COc1cc(-c2cn(C)c(=O)c3cccn23)cc(OC)c1CN1CCC2(CC1)CN(c1ccc3c(c1)C(=O)N(C1CCC(=O)NC1=O)C3)C2` (stereo not shown) [Compound D431], < 10 nM. Regarding `COc1cc(-c2ccn3c(=O)n(C)ccc23)cc(OC)c1CN1CCC2(CC1)CN(c1ccc3c(c1)C(=O)N(C1CCC(=O)NC1=O)C3)C2` (stereo not shown) [Compound D435], the DC50 was > 1000 nM. Still for that read-out and setting: to `COc1cc(-c2cc(C(F)F)c(=O)n(C)c2)cc(OC)c1-c1ccc2c(c1)C(=O)N(C1CCC(=O)NC1=O)C2` (stereo not shown) [Compound D451] belongs 10 to 100 nM; to `COc1cc(-c2c(C)n(C)c(=O)c3[nH]c(C)cc23)cc(OC)c1CN1CCC2(CC1)CN(c1ccc3c(c1)C(=O)N(C1CCC(=O)NC1=O)C3=O)C2` (stereo not shown) [Compound D446], > 1000 nM. As to `COc1cc(-c2cn(C)c(=O)c3cnccc23)cc(OC)c1CN1CCC2(CC1)CN(c1ccc3c(c1)C(=O)N(C1CCCC(=O)NC1=O)C3=O)C2` (stereo not shown) [Compound D388], the DC50 was < 10 nM. Still for that read-out and setting: to `COc1cc(-c2cc(C)c(=O)n(C)c2C)cc(OC)c1CN1CCC(CN2CCC3(CC2)CN(c2ccc4c(c2)C(=O)N(C2CCC(=O)NC2=O)C4)C3)CC1` (stereo not shown) [Compound D397] belongs < 10 nM; to `Cc1cc(-c2ccc(N3CCN(c4ccc5c(c4)C(=O)N(C4CCC(=O)NC4=O)C5)CC3)cc2)cn(C)c1=O` (stereo not shown) [Compound D459], < 10 nM; to `CCn1cc2c(=O)n(C)cc(-c3cc(OC)c(CN4CCC5(CC4)CN(c4ccc6c(c4)C(=O)N(C4CCC(=O)NC4=O)C6)C5)c(OC)c3)c2n1` (stereo not shown) [Compound D417], < 10 nM. Same read-out and setting: to `COc1cc(-c2cc(C)c(=O)n(C)c2)cc(OC)c1CN1CC(C#Cc2ccc3c(c2)C(=O)N(C2CCC(=O)NC2=O)C3)C1` (stereo not shown) [Compound D438] belongs < 10 nM. On the same count and under the same terms, to `COc1cc(-c2cn(C)c(=O)c3cnccc23)cc(OC)c1CN1CCC(CN2CCC3(CN(c4ccc5c(c4)CN(C4CCC(=O)NC4=O)C5=O)C3)C(F)(F)C2)CC1` (stereo not shown) [Compound D379] belongs < 10 nM; to `C/C=C/Cn1cc(-c2cc(OC)c(CN3CCC4(CC3)CN(c3ccc5c(c3)C(=O)N(C3CCC(=O)NC3=O)C5)C4)c(OC)c2)n2cncc2c1=O` (stereo not shown) [Compound D454], < 10 nM. Regarding `COc1cc(-c2cc(C(F)F)c(=O)n(C)c2)cc(OC)c1CN1CCN(CCC2CCN(c3ccc4c(c3)C(=O)N(C3CCC(=O)NC3=O)C4=O)CC2)CC1` (stereo not shown) [Compound D398], the DC50 is < 10 nM.

Turning to `COc1cc(-c2cc(C(F)F)c(=O)n(C)c2)cc(OC)c1CN1CCC(C#Cc2ccc3c(c2)C(=O)N(C2CCC(=O)NC2=O)C3)CC1` (stereo not shown) [Compound D444], the DC50 was < 10 nM. Same read-out and setting: to `COc1cc(CN2CCC3(CC2)CN(c2ccc4c(c2)C(=O)N(C2CCC(=O)NC2=O)C4)C3)cc(-c2cn(C)c(=O)c3cnccc23)c1` (stereo not shown) [Compound D387] belongs < 10 nM; to `C/C=C/Cn1cc(-c2cc(OC)c(CN3CCN(c4ccc5c(c4)C(=O)N(C4CCC(=O)NC4=O)C5)CC3)c(OC)c2)c2cc(C)[nH]c2c1=O` (stereo not shown) [Compound D468], > 1000 nM.
